In patent US6534524B1, “Indazole compounds and pharmaceutical compositions for inhibiting protein kinases, and methods for their use” (Agouron Pharmaceuticals, Inc., priority 1999, dated 2003):
pIC50, pKi: −log10 of the molar value. Values joined by “and” are separate entries in the source; they are usually repeats but may differ in a detail not shown here. Equal entries are not always repeated. Where two headings read alike, the source gives them in different places. Marks after values point to notes of the source that are not given here.

Experiments:
LCK tyrosine kinase = target: T1, LCK tyrosine kinase (Homo sapiens, UniProt P06239, C224D/P223M); test: LCK spectrophotometric assay; format: biochemical; conditions: Table 1; for inhibition at 1 µM: read-out: Lck-P % inhibition
T1 construct: starting from amino acid residue 223 to the end of the protein at residue 509; made in house; host or cells: insect cells
Protocol: The production of ADP from ATP that accompanies phosphoryl transfer was coupled to oxidation of NADH using phosphoenolpyruvate (PEP) and a system having pyruvate kinase (PK) and lactic dehydrogenase (LDH). The oxidation of NADH was monitored by following the decrease of absorbance at 340 nm (e340=6.22 cm^−1 mM^−1) using a Beckman DU 650 spectrophotometer. […] Ki values were determined by measuring enzyme activity in the presence of varying concentrations of test compounds. The data were analyzed using Enzyme Kinetic and Kaleidagraph software.
The spectrophotometric assay was carried out as described above for VEGF-R2, except for the following changes in concentration: LCK=60 nM, MgCl2=0 mM, poly(E4Y1)=20 mM.

[1] = system: human umbilical vein endothelial cells (HUVEC); test: HUVEC proliferation assay (VEGF-stimulated, MTT); format: cell-based; conditions: Homo sapiens, HUVEC, + albumin; read-out: HUVEC + albumin IC50
[2] = Determination of inhibitor concentration in mouse plasma after intraperitoneal and oral dosing; format: in vivo; conditions: for concentration at 7 h: female
Procedure, shortened: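 Mice dosed intraperitoneally or orally; blood taken by ocular bleed at 0.5, 1 and 4 h and by intracardiac puncture at 7 h. Plasma extracted with ethyl acetate after internal standard and NaOH addition, analysed by HPLC or LC-MS against a mouse-plasma standard curve.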

human FGF-R1 = human FGF-R1 (Homo sapiens, UniProt P11362, C488A/C584S/L457V); test: FGF-R spectrophotometric assay; conditions: for inhibition at 1 µM: read-out: FGF-P % inhibition, Table 1
[3] = target: unphosphorylated VEGF-R2Δ50 (FLVK) (Homo sapiens, UniProt P35968, DEL940-989/E990V); test: VEGF-R2 coupled spectrophotometric assay, unphosphorylated VEGF-R2Δ50 (FLVK); conditions: for pKi: FLVK Ki, Table 1
[4] = Human liver microsome (HLM) assay; format: in vitro ADME; conditions: human liver microsomes, 5 μM test compound
Procedure, shortened: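 Compound metabolism in human liver microsomes measured in triplicate. Samples at 0 and 2 h centrifuged at 14000 g for 10 min and analysed by LC-MS.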

CDK1 = CDK1 (Homo sapiens, UniProt P06493); test: CDK1 inhibition; format: biochemical; conditions: Table 3; compound concentration 1 μM
[5] = PO, 25 mg/kg, vehicle PEG400:H2O pH 2.3 30:70
[6] = IP, 25 mg/kg, vehicle PEG400:H2O pH 2.3 30:70
[7] = PO, 50 mg/kg, vehicle PEG400:H2O pH 2.3 30:70
[8] = IP, 25 mg/kg, vehicle PEG400:H2O pH 2.3 60:40
[9] = PO, 50 mg/kg, vehicle PEG400:H2O pH 2.3 60:40

Sequence of human FGF-R1 (P11362 456-766 L457V/C488A/C584S): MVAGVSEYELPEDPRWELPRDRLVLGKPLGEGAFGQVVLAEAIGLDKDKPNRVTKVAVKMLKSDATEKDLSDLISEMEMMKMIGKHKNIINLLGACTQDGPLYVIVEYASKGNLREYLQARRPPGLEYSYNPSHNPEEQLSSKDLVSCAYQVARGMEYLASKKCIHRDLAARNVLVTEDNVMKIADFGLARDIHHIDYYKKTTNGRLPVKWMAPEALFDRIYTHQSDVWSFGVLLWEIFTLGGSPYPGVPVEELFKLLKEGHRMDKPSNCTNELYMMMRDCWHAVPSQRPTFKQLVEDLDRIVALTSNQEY
T1 sequence (P06239 223-509 P223M/C224D): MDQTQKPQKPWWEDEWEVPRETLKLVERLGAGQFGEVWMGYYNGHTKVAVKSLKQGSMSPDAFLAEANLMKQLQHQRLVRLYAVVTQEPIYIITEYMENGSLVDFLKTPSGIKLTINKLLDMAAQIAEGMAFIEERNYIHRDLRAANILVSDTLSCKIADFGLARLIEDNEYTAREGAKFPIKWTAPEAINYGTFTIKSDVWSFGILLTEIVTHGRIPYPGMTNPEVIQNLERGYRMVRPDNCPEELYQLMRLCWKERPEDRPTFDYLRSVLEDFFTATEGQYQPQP
Sequence of unphosphorylated VEGF-R2Δ50 (FLVK) (P35968 with tags, fused parts or gaps DEL940-989/E990V limits assumed): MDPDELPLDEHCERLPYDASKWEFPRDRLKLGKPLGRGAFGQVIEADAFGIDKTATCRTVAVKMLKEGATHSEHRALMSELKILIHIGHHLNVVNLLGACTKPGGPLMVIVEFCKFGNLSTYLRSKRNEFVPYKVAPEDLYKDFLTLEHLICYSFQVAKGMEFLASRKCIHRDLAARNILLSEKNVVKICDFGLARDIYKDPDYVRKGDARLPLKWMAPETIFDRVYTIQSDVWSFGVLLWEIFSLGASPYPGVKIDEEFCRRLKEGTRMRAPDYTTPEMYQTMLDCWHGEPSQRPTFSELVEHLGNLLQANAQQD
Sequence of CDK1 (P06493 whole entry, species assumed): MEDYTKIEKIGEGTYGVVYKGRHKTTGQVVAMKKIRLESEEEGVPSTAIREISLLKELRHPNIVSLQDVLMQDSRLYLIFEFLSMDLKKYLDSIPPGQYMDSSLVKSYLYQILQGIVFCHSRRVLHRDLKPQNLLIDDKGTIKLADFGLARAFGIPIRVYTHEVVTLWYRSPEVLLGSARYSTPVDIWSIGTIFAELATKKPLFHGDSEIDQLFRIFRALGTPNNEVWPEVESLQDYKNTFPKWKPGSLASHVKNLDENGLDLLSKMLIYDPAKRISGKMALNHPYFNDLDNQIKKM
Sequence of CDK1 (P14635 whole entry partner, species assumed): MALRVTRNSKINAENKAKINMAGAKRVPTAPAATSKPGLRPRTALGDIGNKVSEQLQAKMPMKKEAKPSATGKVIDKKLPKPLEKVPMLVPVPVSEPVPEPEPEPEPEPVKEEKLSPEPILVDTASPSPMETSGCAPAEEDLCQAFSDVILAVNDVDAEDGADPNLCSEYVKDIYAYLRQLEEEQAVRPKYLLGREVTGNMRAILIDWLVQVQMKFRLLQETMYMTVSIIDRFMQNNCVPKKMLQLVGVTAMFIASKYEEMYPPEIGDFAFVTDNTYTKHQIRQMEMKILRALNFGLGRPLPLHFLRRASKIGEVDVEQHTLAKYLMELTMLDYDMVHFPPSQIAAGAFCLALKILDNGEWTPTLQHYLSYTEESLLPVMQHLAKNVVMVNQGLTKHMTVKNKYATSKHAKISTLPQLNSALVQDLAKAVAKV

Cc1cnccc1C(=O)Nc1cccc(C(=O)c2ccc3c(/C=C/c4ccccn4)n[nH]c3c2)c1 [Example 41(j), 6-[3-((3-Methylpyridin-4-yl)carboxamido)benzoyl]-3-E-[2-(pyridin-2-yl)ethenyl]-1H-indazole]
inhibition at 1 µM (LCK tyrosine kinase; compound concentration 1 μM): 16% | pIC50 [1]: 8.11 | AUClast [2, 5]: 1476 ng·h/mL | plasma half-life (T1/2) [2, 5]: 1.3 h | concentration at 7 h ([2]; PO, 25 mg/kg, vehicle PEG400:H2O pH 2.3 30:70, read-out: Cmin (7 hr conc.)): 17 ng/mL | inhibition at 1 µM (human FGF-R1; compound concentration 1 μM): 41% | inhibition at 0.05 µM ([3]; read-out: FLVK % inhibition): 98%

O=C(c1cccc(NC(=O)C2C[C@H]2c2ccccc2)c1)c1ccc2c(/C=C/c3ccccn3)n[nH]c2c1 (stereo partly drawn) [Example 41(l), 6-[3-((2-RS-trans-Phenylcyclopropyl)carboxamido)benzoyl]-3-E-[2-(pyridin-2-yl)ethenyl]-1H-indazole]
Lck-P % inhibition (LCK tyrosine kinase; compound concentration 1 μM, 1 µM): 38%* and 63%* | AUClast [2, 6]: 1854 ng·h/mL | Cmax [2, 6]: 623 ng/mL | plasma half-life (T1/2) [2, 6]: 3.1 h | AUClast [2, 7]: 212 ng·h/mL | Cmax [2, 7]: 104 ng/mL | plasma half-life (T1/2) [2, 7]: 0.5 h | concentration at 7 h ([2]; IP, 25 mg/kg, vehicle PEG400:H2O pH 2.3 30:70, read-out: Cmin (7 hr conc.)): 102 ng/mL | concentration at 7 h ([2]; PO, 50 mg/kg, vehicle PEG400:H2O pH 2.3 30:70, read-out: Cmin (7 hr conc.)): 0 ng/mL | FGF-P % inhibition (human FGF-R1; Table 1, compound concentration 1 μM, 1 µM): 66% | inhibition at 1 µM (human FGF-R1; compound concentration 1 μM): 76% | pKi [3]: 10.40 and 9.62

CCn1nc(C)cc1C(=O)Nc1cc(C(=O)c2ccc3c(/C=C/c4ccccn4)n[nH]c3c2)c(C)cc1C [Example 41(ll), 6-[2,4-Dimethyl-5-((1-Ethyl-3-methyl-1H-pyrazol-5-yl)carboxamido)benzoyl]-3-E-[2-(pyridin-2-yl)ethenyl]-1H-indazole]
inhibition at 1 µM (LCK tyrosine kinase; compound concentration 1 μM): 14% | pIC50 [1]: 7.64 | inhibition at 1 µM (human FGF-R1; compound concentration 1 μM): 91% | inhibition at 0.05 µM ([3]; read-out: FLVK % inhibition): 95%

O=C(Nc1cccc(C(=O)c2ccc3c(/C=C/c4ccccn4)n[nH]c3c2)c1)c1ccccc1 [Example 42(a), 6-(3-Benzamidobenzoyl)-3-E-[2-(pyridin-2-yl)ethenyl]-1H-indazole]
pKi (LCK tyrosine kinase; read-out: Lck-P Ki): 7.28 | % remain (HLM, 2 h) [4]: 92% | AUClast [2, 8]: 19899 ng·h/mL | plasma half-life (T1/2) [2, 8]: 5.0 h | AUClast [2, 9]: 8384 ng·h/mL | plasma half-life (T1/2) [2, 9]: 2.0 h | concentration at 7 h ([2]; IP, 25 mg/kg, vehicle PEG400:H2O pH 2.3 60:40, read-out: Cmin (7 hr conc.)): 1640 ng/mL | concentration at 7 h ([2]; PO, 50 mg/kg, vehicle PEG400:H2O pH 2.3 60:40, read-out: Cmin (7 hr conc.)): 341 ng/mL | pKi (human FGF-R1): 7.19 | pKi [3]: 10.34

O=C(Nc1cc(Nc2ccc3c(/C=C/c4ccccc4)n[nH]c3c2)ccc1F)c1ccccc1 [Example 47, 6-[N-(3-Benzamido-4-fluorophenyl)amino]-3-E-styryl-1H-indazole]
inhibition at 1 µM (LCK tyrosine kinase; compound concentration 1 μM): 50% | AUClast [2, 6]: 236 ng·h/mL | Cmax [2, 6]: 39 ng/mL | plasma half-life (T1/2) [2, 6]: 19.9 h | AUClast [2, 7]: 327 ng·h/mL | Cmax [2, 7]: 84 ng/mL | plasma half-life (T1/2) [2, 7]: 3.4 h | inhibition at 1 µM (human FGF-R1; compound concentration 1 μM): 88% | pKi [3]: 9.60

C(=C\c1n[nH]c2cc(-c3ccnc4[nH]ncc34)ccc12)/c1ccccc1 [Example 52(a), 6-(7-Azaindazol-4-yl)-3-E-styryl-1H-indazole]
inhibition at 1 µM (CDK1): 39% | inhibition at 1 µM ([3]; read-out: FLVK % inhibition): 60%

Cc1cc(C(=O)Nc2cccc(Oc3ccc4c(/C=C/c5ccccn5)n[nH]c4c3)c2)n(C)n1 [Example 57, 6-[3-((1,3-Dimethyl-1H-pyrazol-5-yl)carboxamido)phenoxy]-3-E-[2-(pyridin-2-yl)ethenyl]-1H-indazole]
inhibition at 1 µM (LCK tyrosine kinase; compound concentration 1 μM): 30% | inhibition at 1 µM (human FGF-R1; compound concentration 1 μM): 89% | inhibition at 0.05 µM ([3]; read-out: FLVK % inhibition): 100%

CCn1nc(C)cc1C(=O)Nc1cc(Oc2ccc3c(/C=C/c4ncc[nH]4)n[nH]c3c2)ccc1C [Example 58]
inhibition at 1 µM (LCK tyrosine kinase; compound concentration 1 μM): 19% | inhibition at 1 µM (human FGF-R1; compound concentration 1 μM): 98% | inhibition at 0.05 µM ([3]; read-out: FLVK % inhibition): 98%
